Legend:
Test in all cases: relative viability (nuclei count vs DMSO), 5 days (fraction); higher = more cells survive
ChaGo-K-1 = test system: ChaGo-K-1
Summary of the method: (§1)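 For relative viability, nuclei counts in treated wells were divided by those in vehicle wells. Lung cancer cell lines had been pin-tool dosed in 1536-well plates the day after seeding and cultured for 5 days, then fixed and stained in one step (final 0.05% Triton X-100, 1% formaldehyde, 1 ug/ml Hoechst) and imaged at 4×. Doses were one drug alone or a fixed anchor-drug dose plus five library-drug doses (not always all listed) in √10 steps, and values are duplicate-plate medians.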

EKVX = test system: EKVX
Summary of the method: as §1

EMC-BAC-2 = test system: EMC-BAC-2
Summary of the method: as §1

H3255 = test system: H3255
Summary of the method: as §1

HARA = test system: HARA
Summary of the method: as §1

HCC-15 = test system: HCC-15
Summary of the method: as §1

HCC-827 = test system: HCC-827
Summary of the method: as §1

LC-2-ad = test system: LC-2-ad
Summary of the method: as §1

LCLC-97TM1 = test system: LCLC-97TM1
Summary of the method: as §1

LU99A = test system: LU99A
Summary of the method: as §1

NCI-H1437 = test system: NCI-H1437
Summary of the method: as §1

NCI-H1792 = test system: NCI-H1792
Summary of the method: as §1

NCI-H1793 = test system: NCI-H1793
Summary of the method: as §1

NCI-H1915 = test system: NCI-H1915
Summary of the method: as §1

NCI-H1944 = test system: NCI-H1944
Summary of the method: as §1

NCI-H2126 = test system: NCI-H2126
Summary of the method: as §1

NCI-H23 = test system: NCI-H23
Summary of the method: as §1

NCI-H322M = test system: NCI-H322M
Summary of the method: as §1

NCI-H441 = test system: NCI-H441
Summary of the method: as §1

NCI-H460 = test system: NCI-H460
Summary of the method: as §1

NCI-H661 = test system: NCI-H661
Summary of the method: as §1

PC-3 [JPC-3] = test system: PC-3 [JPC-3]
Summary of the method: as §1

SK-LU-1 = test system: SK-LU-1
Summary of the method: as §1

O=c1[nH]c2ccccc2n1C1CCN(CCCC(c2ccc(F)cc2)c2ccc(F)cc2)CC1 [Pimozide] + Cc1nc(Nc2ncc(C(=O)Nc3c(C)cccc3Cl)s2)cc(N2CCN(CCO)CC2)n1 [Dasatinib] (partner 0.075 µM)
relative viability (ChaGo-K-1; first compound 0.08 µM): 0.613 | relative viability (ChaGo-K-1; first compound 0.253 µM): 0.586 | relative viability (ChaGo-K-1; first compound 0.8 µM): 0.509 | relative viability (ChaGo-K-1; first compound 2.53 µM): 0.522 | relative viability (ChaGo-K-1; first compound 8 µM): 0.595 | relative viability (EKVX; first compound 0.253 µM): 0.489 | relative viability (EKVX; first compound 0.8 µM): 0.544 | relative viability (EKVX; first compound 2.53 µM): 0.536 | relative viability (EKVX; first compound 8 µM): 0.688 | relative viability (EMC-BAC-2; first compound 0.08 µM): 0.351 | relative viability (EMC-BAC-2; first compound 0.253 µM): 0.274 | relative viability (EMC-BAC-2; first compound 0.8 µM): 0.331 | relative viability (EMC-BAC-2; first compound 2.53 µM): 0.285 | relative viability (EMC-BAC-2; first compound 8 µM): 0.218 | relative viability (H3255; first compound 0.253 µM): 0.355 | relative viability (H3255; first compound 0.8 µM): 0.51 | relative viability (H3255; first compound 2.53 µM): 0.446 | relative viability (H3255; first compound 8 µM): 0.323 | relative viability (HARA; first compound 0.253 µM): 0.262 | relative viability (HARA; first compound 0.8 µM): 0.275 | relative viability (HARA; first compound 2.53 µM): 0.247 | relative viability (HARA; first compound 8 µM): 0.304 | relative viability (HCC-15; first compound 0.08 µM): 0.651 | relative viability (HCC-15; first compound 0.253 µM): 0.577 | relative viability (HCC-15; first compound 0.8 µM): 0.551 | relative viability (HCC-15; first compound 2.53 µM): 0.565 | relative viability (HCC-15; first compound 8 µM): 0.495 | relative viability (HCC-827; first compound 0.253 µM): 0.265 | relative viability (HCC-827; first compound 0.8 µM): 0.327 | relative viability (HCC-827; first compound 2.53 µM): 0.32 | relative viability (HCC-827; first compound 8 µM): 0.34 | relative viability (LC-2-ad; first compound 0.08 µM): 0.571 | relative viability (LC-2-ad; first compound 0.253 µM): 0.518 | relative viability (LC-2-ad; first compound 0.8 µM): 0.447 | relative viability (LC-2-ad; first compound 2.53 µM): 0.548 | relative viability (LC-2-ad; first compound 8 µM): 0.493 | relative viability (LCLC-97TM1; first compound 0.08 µM): 0.94 | relative viability (LCLC-97TM1; first compound 0.253 µM): 0.811 | relative viability (LCLC-97TM1; first compound 0.8 µM): 0.797 | relative viability (LCLC-97TM1; first compound 2.53 µM): 0.818 | relative viability (LCLC-97TM1; first compound 8 µM): 0.626 | relative viability (LU99A; first compound 0.08 µM): 0.539 | relative viability (LU99A; first compound 0.253 µM): 0.527 | relative viability (LU99A; first compound 0.8 µM): 0.531 | relative viability (LU99A; first compound 2.53 µM): 0.459 | relative viability (LU99A; first compound 8 µM): 0.459 | relative viability (NCI-H1437; first compound 0.08 µM): 0.483 | relative viability (NCI-H1437; first compound 0.253 µM): 0.43 | relative viability (NCI-H1437; first compound 0.8 µM): 0.402 | relative viability (NCI-H1437; first compound 2.53 µM): 0.289 | relative viability (NCI-H1437; first compound 8 µM): 0.249 | relative viability (NCI-H1792; first compound 0.08 µM): 0.89 | relative viability (NCI-H1792; first compound 0.253 µM): 0.823 | relative viability (NCI-H1792; first compound 0.8 µM): 0.769 | relative viability (NCI-H1792; first compound 2.53 µM): 0.973 | relative viability (NCI-H1792; first compound 8 µM): 0.849 | relative viability (NCI-H1793; first compound 0.253 µM): 0.388 | relative viability (NCI-H1793; first compound 0.8 µM): 0.343 | relative viability (NCI-H1793; first compound 2.53 µM): 0.391 | relative viability (NCI-H1793; first compound 8 µM): 0.35 | relative viability (NCI-H1915; first compound 0.08 µM): 0.328 | relative viability (NCI-H1915; first compound 0.253 µM): 0.246 | relative viability (NCI-H1915; first compound 0.8 µM): 0.214 | relative viability (NCI-H1915; first compound 2.53 µM): 0.322 | relative viability (NCI-H1915; first compound 8 µM): 0.303 | relative viability (NCI-H1944; first compound 0.08 µM): 0.212 | relative viability (NCI-H1944; first compound 0.253 µM): 0.203 | relative viability (NCI-H1944; first compound 0.8 µM): 0.183 | relative viability (NCI-H1944; first compound 2.53 µM): 0.225 | relative viability (NCI-H1944; first compound 8 µM): 0.197 | relative viability (NCI-H2126; first compound 0.08 µM): 0.687 | relative viability (NCI-H2126; first compound 0.253 µM): 0.548 | relative viability (NCI-H2126; first compound 0.8 µM): 0.568 | relative viability (NCI-H2126; first compound 2.53 µM): 0.607 | relative viability (NCI-H2126; first compound 8 µM): 0.605 | relative viability (NCI-H23; first compound 0.08 µM): 0.887 | relative viability (NCI-H23; first compound 0.253 µM): 0.84 | relative viability (NCI-H23; first compound 0.8 µM): 0.71 | relative viability (NCI-H23; first compound 2.53 µM): 0.679 | relative viability (NCI-H23; first compound 8 µM): 0.802 | relative viability (NCI-H322M; first compound 0.253 µM): 0.234 | relative viability (NCI-H322M; first compound 0.8 µM): 0.247 | relative viability (NCI-H322M; first compound 2.53 µM): 0.257 | relative viability (NCI-H322M; first compound 8 µM): 0.231 | relative viability (NCI-H441; first compound 0.08 µM): 0.86 | relative viability (NCI-H441; first compound 0.253 µM): 0.724 | relative viability (NCI-H441; first compound 0.8 µM): 0.605 | relative viability (NCI-H441; first compound 2.53 µM): 0.387 | relative viability (NCI-H441; first compound 8 µM): 0.521 | relative viability (NCI-H460; first compound 0.08 µM): 0.537 | relative viability (NCI-H460; first compound 0.253 µM): 0.486 | relative viability (NCI-H460; first compound 0.8 µM): 0.529 | relative viability (NCI-H460; first compound 2.53 µM): 0.483 | relative viability (NCI-H460; first compound 8 µM): 0.447 | relative viability (NCI-H661; first compound 0.08 µM): 0.782 | relative viability (NCI-H661; first compound 0.253 µM): 0.828 | relative viability (NCI-H661; first compound 0.8 µM): 0.826 | relative viability (NCI-H661; first compound 2.53 µM): 0.725 | relative viability (NCI-H661; first compound 8 µM): 0.611 | relative viability (PC-3 [JPC-3]; first compound 0.08 µM): 0.529 | relative viability (PC-3 [JPC-3]; first compound 0.253 µM): 0.912 | relative viability (PC-3 [JPC-3]; first compound 0.8 µM): 0.867 | relative viability (PC-3 [JPC-3]; first compound 2.53 µM): 0.892 | relative viability (PC-3 [JPC-3]; first compound 8 µM): 0.897 | relative viability (SK-LU-1; first compound 0.08 µM): 0.2 | relative viability (SK-LU-1; first compound 0.253 µM): 0.21 | relative viability (SK-LU-1; first compound 0.8 µM): 0.184 | relative viability (SK-LU-1; first compound 2.53 µM): 0.186 | relative viability (SK-LU-1; first compound 8 µM): 0.168

— the supplement of paper PMC10307832
